From PubChem BioAssay AID1996 come the findings set out here.

The structures appear in SMILES notation. Converted amounts (≈) assume the structure as drawn. Some results are limits rather than exact numbers.

For the data set the following is noted: buffer; pH 7.4; 200.0 µM.
The compound `O=C(O)CCNC(=O)/C(=C\c1ccco1)NC(=O)c1ccco1` gave a solubility (kinetic) greater than 47.7 µg/mL.

On to `Cc1ccc(OCC(=O)N2CCN(S(C)(=O)=O)CC2)cc1`, for which the solubility (kinetic) is greater than 46.9 µg/mL.

Consider `O=C(COc1ccccc1)Nc1ccc(NC(=O)c2ccco2)cc1`, for which the solubility (kinetic) was found to be 2.6 µg/mL (≈ 7.73 µM). As for `Cc1ccc(CN2CCN(c3ccccc3Cl)CC2)o1`, the kinetic solubility turned out to be 10 µg/mL (≈ 34.4 µM).

Compound `CNP(=O)(Oc1ccccc1)OC12CC3CC(CC(C3)C1)C2` (centres undefined) had a kinetic solubility greater than 48.2 µg/mL. For the compound `CCc1ccc(NC(=O)/C(C#N)=C/c2ccncc2)cc1`, the kinetic solubility was determined as 8.8 µg/mL (≈ 31.7 µM). For the compound `C=CCOc1ccc(CNc2ccc3[nH]c(=O)[nH]c3c2)cc1`, the solubility (kinetic) is 7.9 µg/mL (≈ 26.7 µM).

Turning to `CC(C)CN1C(=O)NC2(CCCc3ccccc32)C1=O` (centres undefined), the kinetic solubility is greater than 40.9 µg/mL.

For `O=C(NC1=NCCS1)c1ccccc1OCc1ccc(F)cc1`, the solubility (kinetic) was less than 0.4 µg/mL. As for `Cc1ccc(S(=O)(=O)CCc2nc3ccccc3[nH]2)cc1C`, the figure is greater than 47.2 µg/mL. In turn, `CCC(CC)C(=O)Nc1cccc(C(=O)NCCc2ccccc2)c1` showed a kinetic solubility of 40.8 µg/mL (≈ 121 µM). With `O=C(/N=C1\NC(=O)C(F)(C(F)(F)F)S1)NC1CCCCC1` (centres undefined), the kinetic solubility is greater than 49.1 µg/mL. As for `COc1ccc(CNC(=O)C2CCC(=O)N2C(C)C)c(OC)c1` (centres undefined), the solubility (kinetic) is greater than 48.1 µg/mL.

Take `CC(=O)c1sc(-c2ccccc2)cc1N`: the solubility (kinetic) was determined as 28.4 µg/mL (≈ 131 µM). `CCOC(=O)C1CCCN(Cc2cc(=O)oc3cc(C)ccc23)C1` (centres undefined) had a solubility (kinetic) of 40.5 µg/mL (≈ 123 µM). `O=C(Nc1cccc(S(=O)(=O)N2CCCC2)c1)c1ccco1` returned a kinetic solubility greater than 48.1 µg/mL. As to `CCn1c(=O)n(CC)c2cc([N+](=O)[O-])c(N3CCNCC3)cc21`, the kinetic solubility was greater than 47.9 µg/mL. Compound `CCC/C(O)=C1\C(=O)CCCC1=NCCc1c(C)[nH]c2ccccc12` yielded a solubility (kinetic) of 34.4 µg/mL (≈ 102 µM). In turn, `COc1cccc(Nc2nc(-c3ccccc3O)nc3ccccc23)c1` came in with a kinetic solubility of less than 0.2 µg/mL. For `O=C(OCC(=O)c1ccc[nH]1)c1ccccc1`, the kinetic solubility came to 32.2 µg/mL (≈ 140 µM). For `O=C(NNC(=O)c1ccncc1)Nc1cccc(C(F)(F)F)c1`, the solubility (kinetic) was greater than 48.6 µg/mL. As for `Cc1ccc(C(=O)NC2CC3CCC(C2)N3C)cc1` (centres undefined), the figure is greater than 38.8 µg/mL; as for `Cc1ccc(OCC(=O)O/N=C(\N)c2ccccn2)cc1`, greater than 42.8 µg/mL. As for `CCCC(C)NC(=O)CN1C(=O)c2cccc3cccc1c23` (centres undefined), the figure is 8.3 µg/mL (≈ 28 µM); as for `Cl.O=C(NC12CC3CC(CC(C3)C1)C2)OCCNC1CCCCC1`, greater than 53.5 µg/mL; as for `O=C(Nc1ccc(SC(F)F)cc1)c1ccccc1F`, 6.1 µg/mL (≈ 20.5 µM). As for `CC(OC(=O)c1ccncc1)C(=O)Nc1cccc([N+](=O)[O-])c1` (centres undefined), the solubility (kinetic) is greater than 47.3 µg/mL. The compound `COc1ccc(NC(C)=O)cc1CP(=O)(c1ccccc1)c1ccccc1` returned a solubility (kinetic) greater than 56.9 µg/mL. With `O=C(COC(=O)c1cccc([N+](=O)[O-])c1)Nc1ncc(Br)s1`, the solubility (kinetic) came to 3.5 µg/mL (≈ 9.06 µM). On to `CC1(C)CCc2cc(-c3ccnc(=S)[nH]3)ccc2O1`, for which the solubility (kinetic) amounted to 8.5 µg/mL (≈ 31.2 µM).

The compound `Cc1cccc(C)c1NC(=O)c1ccc(N2CCCC2=O)cc1` returned a kinetic solubility greater than 46.3 µg/mL. For the compound `COc1ccc(OC)c2c(C)cc(N3CCCCCC3)nc12`, the kinetic solubility amounted to 6.3 µg/mL (≈ 21 µM). As for `C=CCn1cc(C(=O)OCC)c(=O)c2cc(F)c(F)cc21`, the figure is greater than 44 µg/mL; as for `Cc1cc(-c2nc3ccccc3[nH]2)ccc1N`, greater than 33.5 µg/mL; as for `CCOC(=O)c1nc(Nc2ccccc2CC)c2ccccc2n1`, greater than 48.2 µg/mL. The compound `Nc1nonc1C(=O)NCCNC(=O)c1ccc(Cl)cc1` gave a kinetic solubility greater than 46.5 µg/mL. The compound `CCOC(=O)C(=CNc1ccc2c(c1)c1ccccc1n2CC)C(=O)OCC` registered a kinetic solubility of less than 0.4 µg/mL. In the case of `CCOc1ccc(-c2nc[nH]c2[N+](=O)[O-])cc1`, the solubility (kinetic) was found to be 1.7 µg/mL (≈ 7.29 µM).

Take `O=C(c1cccc(Cl)c1)N1CCn2c1nc1ccccc12`: the solubility (kinetic) amounted to 0.9 µg/mL (≈ 3.02 µM). Regarding `COc1ccc(OCCC(=O)Nc2ccc(S(N)(=O)=O)cc2)cc1`, the kinetic solubility worked out at 48.1 µg/mL (≈ 137 µM). `O=C(c1ccc(F)cc1)c1ccc(-c2ccc(F)cc2)nc1` gave a kinetic solubility of 0.9 µg/mL (≈ 3.05 µM).

In turn, `CCCCc1ccc(NC(=O)NCc2cccnc2)cc1` had a solubility (kinetic) of 21.1 µg/mL (≈ 74.5 µM). In turn, `O=C(CSc1nc2ccccc2c(=O)n1Cc1ccc(F)cc1)NCC1CCCO1` (centres undefined) registered a kinetic solubility of 4.1 µg/mL (≈ 9.59 µM).

Compound `N/C(CS(=O)(=O)c1ccccc1)=N\OC(=O)c1ccc(F)cc1` came in with a kinetic solubility of 8.8 µg/mL (≈ 26.2 µM). For the compound `Cn1c(Nc2ccc(Cl)cc2)cc(=O)n(C)c1=O`, the solubility (kinetic) was greater than 39.9 µg/mL. Compound `O=C(Nc1ccc(N2C(=O)CCC2=O)cc1Cl)c1cccs1` came in with a solubility (kinetic) greater than 50.2 µg/mL. As for `CN(C(=O)/C=C/c1ccc2c(c1)OCO2)c1ccccc1`, the figure is 34.7 µg/mL (≈ 123 µM); as for `CC(Sc1ccc(S(=O)(=O)N2CCCC2)cn1)C(N)=O` (centres undefined), greater than 47.3 µg/mL. With `COCCCn1c(=O)cc(C)[nH]c1=S`, the solubility (kinetic) was greater than 32.1 µg/mL. In the case of `Clc1ccccc1-c1ncc(-c2ccccc2)o1`, the solubility (kinetic) is less than 0.5 µg/mL.

`Cc1ccc(NC(=O)CN2CCN(Cc3ccccc3)CC2)cc1F` yielded a solubility (kinetic) of 42.8 µg/mL (≈ 125 µM). Consider `O=C1NC(c2ccccc2Cl)=N/C1=C/c1ccco1`, for which the kinetic solubility is 8.5 µg/mL (≈ 31.2 µM). Regarding `COCCNc1oc(-c2ccccc2Cl)nc1S(=O)(=O)c1ccc(C)cc1`, the kinetic solubility was found to be 44.1 µg/mL (≈ 108 µM). With `COS(=O)(=O)[O-].Cn1c(-c2ccc3ccccc3n2)[n+](C)c2ccccc21`, the kinetic solubility is greater than 57.8 µg/mL. To `NC(=O)COc1ccc(C(=O)/C=C2/C(=O)Nc3ccccc32)cc1` belongs 6.4 µg/mL (≈ 19.9 µM); to `Cc1ccc(S(=O)(=O)CC(=O)Nc2ccccn2)cc1`, 42.3 µg/mL (≈ 146 µM); to `O=C(O)CCNC(=O)C12CC3CC(CC(C3)C1)C2`, greater than 37.7 µg/mL.

Compound `Cc1ccc(/C=C(\C#N)C(=O)NC(C)c2ccccc2)o1` (centres undefined) gave a kinetic solubility of 8.6 µg/mL (≈ 30.7 µM). Compound `CN1CCN(c2ccccc2NC(=O)c2ccccc2F)CC1` came in with a kinetic solubility greater than 47 µg/mL. `COc1ccc2c(c1)CCc1c(C(=O)NCC(C)C)noc1-2` gave a kinetic solubility of 1.5 µg/mL (≈ 4.99 µM). To `Cc1cc(NC(=O)COC(=O)c2cnccn2)ccc1Br` belongs greater than 52.5 µg/mL; to `Cc1ccccc1C(=O)Nc1ccccc1C(=O)N1CCC(C)CC1`, 32.9 µg/mL (≈ 97.8 µM); to `O=C1CSC(=S)N1c1cccc(Br)c1`, 2.9 µg/mL (≈ 10.1 µM).

Take `Clc1cccc(CNCC2CCCO2)c1Cl` (centres undefined): the kinetic solubility amounted to 33.3 µg/mL (≈ 128 µM). As for `CCN1CCCC1CNC(=O)C(=O)NC(C)C` (centres undefined), the figure is greater than 36.2 µg/mL; as for `O=C(COC(=O)/C=C/c1cccc(Cl)c1)Nc1ccc(N2CCOCC2)cc1`, 3.2 µg/mL (≈ 7.98 µM); as for `CC(C)(C)C(=O)Nc1ccc(S(=O)(=O)N2CCCC2)cc1`, greater than 46.6 µg/mL. `CC1CC(=O)Nc2ccccc2N1S(=O)(=O)c1cccc(F)c1` (centres undefined): the solubility (kinetic) turned out to be 30 µg/mL (≈ 89.7 µM). `O=C(NS(=O)(=O)c1ccccc1)c1cccc(Br)c1` yielded a solubility (kinetic) greater than 51 µg/mL.

With `Cc1ccc(Br)c(NS(=O)(=O)c2cccc(C(=O)N3CCNC(=O)C3)c2)c1`, the kinetic solubility is greater than 67.8 µg/mL. `Cc1cccc(C)c1NC(=O)COC(=O)[C@@H]1CCCN1C(=O)c1cccs1` came in with a solubility (kinetic) greater than 58 µg/mL. Compound `COc1ccc(-c2csc(Nc3ccccn3)n2)cc1OC` came in with a solubility (kinetic) of 5.5 µg/mL (≈ 17.6 µM). `COc1ccc(OC2CCN(S(=O)(=O)c3ccccc3)CC2)cc1` registered a solubility (kinetic) of 4.8 µg/mL (≈ 13.8 µM). `O=C1c2ccccc2C(=O)N1CCOc1ccccc1Br` registered a solubility (kinetic) of 4 µg/mL (≈ 11.6 µM). In the case of `C=CCn1c(NCc2ccccc2O)nc2ccccc21`, the kinetic solubility turned out to be 2.4 µg/mL (≈ 8.59 µM). Compound `N#Cc1c(-c2ccccc2)cc(-c2ccccc2)nc1SCC(=O)O` yielded a solubility (kinetic) greater than 52 µg/mL. In turn, `O=C(COC(=O)CNC(=O)c1ccc(Cl)cc1)NC1CCCCCC1` returned a solubility (kinetic) of 18 µg/mL (≈ 49.1 µM). As for `O=C1CSC(c2cccnc2)N1Cc1ccc(Cl)c(Cl)c1` (centres undefined), the figure is 48.7 µg/mL (≈ 144 µM).

`O=S(=O)(Nc1ccccc1)c1cccc2nonc12`: the solubility (kinetic) is greater than 41.3 µg/mL.

Regarding `CCCc1c(O)nc(SCC(=O)O)[nH]c1=O`, the kinetic solubility was greater than 36.6 µg/mL.

In turn, `CCCn1c(SCC(=O)Nc2ccc(Cl)cc2F)nc(O)cc1=O` showed a solubility (kinetic) greater than 55.8 µg/mL. As for `Cn1c(Nc2ccccc2)cc(=O)n(C)c1=O`, the kinetic solubility is greater than 34.7 µg/mL.

As for `CCc1ccc(N2C(=O)CN(Cc3sccc3C)C2=S)cc1`, the kinetic solubility is less than 0.4 µg/mL. Turning to `Cc1ccccc1CSCCC(=O)NCCc1ccccc1`, the solubility (kinetic) worked out at 9.8 µg/mL (≈ 31.3 µM). As for `CCCn1cnc2scc(-c3ccc(OC)cc3)c2c1=O`, the figure is 13.9 µg/mL (≈ 46.3 µM). With `CC(=O)Nc1sc2c(c1C(N)=O)CCN(Cc1ccccc1)C2.Cl`, the kinetic solubility was greater than 54.9 µg/mL. As for `O=C(CCS(=O)(=O)c1ccc(Cl)cc1)NC1CCCC1`, the figure is greater than 47.4 µg/mL; as for `CC1(C)Oc2ccc(C(=O)Nc3ccccc3)cc2N(CC#N)C1=O`, greater than 50.3 µg/mL; as for `CCOc1ccc2[nH]c3c(NCCN(CC)CC)ncnc3c2c1`, 43.2 µg/mL (≈ 132 µM). `CC(C)(C)c1ccc(N=C2SCC(=O)N2Cc2cccs2)cc1` came in with a solubility (kinetic) of 0.4 µg/mL (≈ 1.16 µM).

`CC1=C(C(=O)OC(C)C)C(c2ccc(O)cc2)NC(=O)N1` (centres undefined): the solubility (kinetic) was greater than 43.5 µg/mL. To `CC(=O)c1ccc(Nc2c([N+](=O)[O-])ccc3nonc23)cc1` belongs less than 0.2 µg/mL; to `CC(=O)c1c(C)nc(-c2ccc(OCC(=O)Nc3ccccc3)cc2)n1O`, 51.3 µg/mL (≈ 140 µM). Regarding `O=C(Nc1cccc(O)c1)c1ccc(S(=O)(=O)N2CCCCCC2)cc1`, the kinetic solubility amounted to 3.7 µg/mL (≈ 9.88 µM). `Cc1cc(Cl)ccc1NC(=O)CCN1C(=O)NC(C)(C)C1=O` displayed a kinetic solubility greater than 48.6 µg/mL. As for `COC(=O)[C@H](C)NC(=O)N1CCC(Cc2ccccc2)CC1`, the figure is greater than 45.7 µg/mL; as for `COC(=O)c1ccc(NC(=S)N2CCN(C)CC2)cc1`, greater than 44 µg/mL; as for `Cc1cccc(NC(=O)CCCn2c(=S)[nH]c3ccccc3c2=O)c1`, 0.3 µg/mL (≈ 0.849 µM). Turning to `COc1cc2c(cc1OC)CN(C(=O)c1oc3ccccc3c1C)CC2`, the kinetic solubility turned out to be 27.2 µg/mL (≈ 77.4 µM). As for `COc1ccc(OCC(=O)OCC(=O)NC2CC2)cc1`, the figure is greater than 41.9 µg/mL; as for `CSc1ccccc1NC(=O)c1ccccc1`, 28.8 µg/mL (≈ 118 µM). As for `O=C(COC(=O)c1cccc(F)c1)NC1CC1`, the figure is greater than 35.6 µg/mL; as for `O=C(Nc1ccccc1O)c1csc2c1CCCC2`, 2.2 µg/mL (≈ 8.05 µM).

On to `CC(CNS(=O)(=O)c1ccccc1)Sc1ncccn1` (centres undefined), for which the kinetic solubility was greater than 46.4 µg/mL.
